Among the data in BindingDB's records for doi:10.1021/jm00166a009 (Ohio State University, 1990) are IC50 values, retold here.

The target in the test is Alpha-2 adrenergic receptor (Homo sapiens). In words: Stimulatory activity against serotonin secretion (SEC).
Turning to `Oc1cc(CC2=NCCN2)cc(F)c1O`, the IC50 was found to be 18.2 µM. Under `Oc1ccc(CC2=NCCN2)c(F)c1O` stands 15.5 µM; under `Oc1ccc(C(O)c2ncc[nH]2)cc1O` (stereo not drawn), 437 µM.
